Test results taken from ChEMBL document CHEMBL4033638, “Effect of natural and semi-synthetic cadinanes from Heterotheca inuloides on NF-κB, Nrf2 and STAT3 signaling pathways and evaluation of their in vitro cytotoxicity in human cancer cell lines” (Bioorg Med Chem, 2017).
Activity calls are given as the source filed them. The rule behind the calls is not given here.

Key:
[1] = Inhibition of TNFalpha-stimulated NFkappaB (unknown origin) expressed in mouse NIH-3T3-KBFLuc cells at 50 uM after 6 hrs by luciferase reporter gene assay relative to control; type: cell-based; conditions: Homo sapiens
[2] = test system: NIH3T3; assay: Cytotoxicity against mouse NIH/3T3 cells infected with lentivirus encoding nuclear restricted red fluorescent protein assessed as reduction in cell viability up to 100 uM after 6 hrs by microscopic method; type: cell-based; conditions: nih3t3, 6 h
[3] = target: Signal transducer and activator of transcription 3 (Homo sapiens) (UniProt P40763); assay: Inhibition of IFNgamma-stimulated STAT3 (unknown origin) activation expressed in human HeLa cells at 50 uM after 6 hrs by luciferase reporter gene assay relative to control; type: cell-based
[4] = Inhibition of TNFalpha-stimulated NFkappaB (unknown origin) expressed in mouse NIH-3T3-KBFLuc cells preincubated for 15 mins followed by TNFalpha stimulation for 6 hrs by luciferase reporter gene assay; type: cell-based; conditions: Homo sapiens
[5] = target: T1, Nuclear factor erythroid 2-related factor 2 (Homo sapiens) (UniProt Q16236); assay: Activation of Nrf2 in human HaCaT-ARE-Luc cells at 50 uM after 6 hrs by luciferase reporter gene assay relative to control; type: cell-based
T1 sequence (whole entry): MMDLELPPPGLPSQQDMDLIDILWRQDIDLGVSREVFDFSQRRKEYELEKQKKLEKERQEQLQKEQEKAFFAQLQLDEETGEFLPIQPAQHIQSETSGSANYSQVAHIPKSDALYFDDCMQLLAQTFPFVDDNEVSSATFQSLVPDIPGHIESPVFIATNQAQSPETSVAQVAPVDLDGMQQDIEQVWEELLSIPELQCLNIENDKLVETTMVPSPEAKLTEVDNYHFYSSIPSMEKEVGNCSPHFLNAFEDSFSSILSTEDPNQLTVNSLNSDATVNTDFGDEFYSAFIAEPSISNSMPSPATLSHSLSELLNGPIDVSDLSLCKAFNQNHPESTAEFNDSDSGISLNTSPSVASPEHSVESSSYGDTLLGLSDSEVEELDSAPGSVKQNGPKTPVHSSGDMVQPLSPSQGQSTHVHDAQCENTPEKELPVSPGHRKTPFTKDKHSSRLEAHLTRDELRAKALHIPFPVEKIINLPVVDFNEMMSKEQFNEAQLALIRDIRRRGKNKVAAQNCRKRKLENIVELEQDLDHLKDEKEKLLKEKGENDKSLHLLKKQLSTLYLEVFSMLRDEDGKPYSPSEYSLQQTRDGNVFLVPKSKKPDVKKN

[6] = test system: HaCaT; assay: Antioxidant activity in human HaCaT cells assessed as inhibition of TBHP-induced ROS accumulation by measuring ROS level at 75 uM preincubated with cells followed by TBHP addition by CM-H2DCFDA dye-based fluorescence assay relative to control; type: functional; parameters: scale not given: the % may be the effect or the level left
[7] = test system: K562; assay: Antiproliferative activity against human K562 cells at 50 uM after 48 hrs by sulforhodamine B assay relative to control; type: functional; conditions: K562, 48 h
[8] = test system: HCT-15; assay: Antiproliferative activity against human HCT15 cells after 48 hrs by sulforhodamine B assay; type: functional, cell-based; conditions: HCT-15, 48 h
[9] = test system: SK-LU-1; assay: Antiproliferative activity against human SK-LU-1 cells at 50 uM after 48 hrs by sulforhodamine B assay relative to control; type: functional; conditions: SK-LU-1, 48 h
[10] = test system: HaCaT; assay: Antioxidant activity in human HaCaT cells assessed as inhibition of TBHP-induced ROS accumulation by measuring ROS level at 25 uM preincubated with cells followed by TBHP addition by CM-H2DCFDA dye-based fluorescence assay relative to control; type: functional; parameters: scale not given: the % may be the effect or the level left
[11] = test system: HaCaT; assay: Induction of ROS accumulation in human HaCaT cells at 10 to 100 uM by CM-H2DCFDA dye-based fluorescence assay; type: functional, cell-based
[12] = test system: HaCaT; assay: Antioxidant activity in human HaCaT cells assessed as inhibition of TBHP-induced ROS accumulation by measuring ROS level at 100 uM preincubated with cells followed by TBHP addition by CM-H2DCFDA dye-based fluorescence assay relative to control; type: functional; parameters: scale not given: the % may be the effect or the level left
[13] = test system: HaCaT; assay: Antioxidant activity in human HaCaT cells assessed as inhibition of TBHP-induced ROS accumulation by measuring ROS level at 50 uM preincubated with cells followed by TBHP addition by CM-H2DCFDA dye-based fluorescence assay relative to control; type: functional; parameters: scale not given: the % may be the effect or the level left
[14] = test system: SK-LU-1; assay: Antiproliferative activity against human SK-LU-1 cells after 48 hrs by sulforhodamine B assay; type: functional, cell-based; conditions: SK-LU-1, 48 h
[15] = test system: K562; assay: Antiproliferative activity against human K562 cells after 48 hrs by sulforhodamine B assay; type: functional, cell-based; conditions: K562, 48 h
[16] = test system: HaCaT; assay: Antioxidant activity in human HaCaT cells assessed as inhibition of TBHP-induced ROS accumulation by measuring ROS level at 10 uM preincubated with cells followed by TBHP addition by CM-H2DCFDA dye-based fluorescence assay relative to control; type: functional; parameters: scale not given: the % may be the effect or the level left
[17] = test system: MCF7; assay: Antiproliferative activity against human MCF7 cells at 50 uM after 48 hrs by sulforhodamine B assay relative to control; type: functional; conditions: MCF7, 48 h
[18] = test system: HCT-15; assay: Antiproliferative activity against human HCT15 cells at 50 uM after 48 hrs by sulforhodamine B assay relative to control; type: functional; conditions: HCT-15, 48 h
[19] = species: Mus musculus; assay: Inhibition of IKK in mouse NIH-3T3-KBF-Luc cells assesed as downregulation of TNFalpha-stimulated phospho-IkappaBalpha protein expression levels at 10 to 100 uM preincubated for 15 mins followed by TNFalpha stimulation for 20 mins by Western blot analysis
[20] = test system: PC-3; assay: Antiproliferative activity against human PC3 cells at 50 uM after 48 hrs by sulforhodamine B assay relative to control; type: functional; conditions: PC-3, 48 h
[21] = test system: U-251; assay: Antiproliferative activity against human U251 cells at 50 uM after 48 hrs by sulforhodamine B assay relative to control; type: functional; conditions: U-251, 48 h
[22] = test system: PC-3; assay: Antiproliferative activity against human PC3 cells after 48 hrs by sulforhodamine B assay; type: functional, cell-based; conditions: PC-3, 48 h
[23] = test system: U-251; assay: Antiproliferative activity against human U251 cells after 48 hrs by sulforhodamine B assay; type: functional, cell-based; conditions: U-251, 48 h
[24] = Cytotoxicity against human gingival fibroblasts assessed as decrease in cell viability at 50 uM after 48 hrs by sulforhodamine B dye-based assay relative to control; conditions: gingival fibroblast
[25] = test system: MCF7; assay: Antiproliferative activity against human MCF7 cells after 48 hrs by sulforhodamine B assay; type: functional, cell-based; conditions: MCF7, 48 h
[26] = Cytotoxicity against human gingival fibroblasts assessed as decrease in cell viability at 50 uM after 48 hrs by sulforhodamine B dye-based assay; conditions: gingival fibroblast
[27] = test system: HaCaT; assay: Antioxidant activity in human HaCaT cells assessed as inhibition of TBHP-induced ROS accumulation by measuring ROS level preincubated with cells followed by TBHP addition by CM-H2DCFDA dye-based fluorescence assay relative to control; type: functional; parameters: scale not given: the % may be the effect or the level left

Chain of Signal transducer and activator of transcription 3 (Homo sapiens) (P40763 whole entry): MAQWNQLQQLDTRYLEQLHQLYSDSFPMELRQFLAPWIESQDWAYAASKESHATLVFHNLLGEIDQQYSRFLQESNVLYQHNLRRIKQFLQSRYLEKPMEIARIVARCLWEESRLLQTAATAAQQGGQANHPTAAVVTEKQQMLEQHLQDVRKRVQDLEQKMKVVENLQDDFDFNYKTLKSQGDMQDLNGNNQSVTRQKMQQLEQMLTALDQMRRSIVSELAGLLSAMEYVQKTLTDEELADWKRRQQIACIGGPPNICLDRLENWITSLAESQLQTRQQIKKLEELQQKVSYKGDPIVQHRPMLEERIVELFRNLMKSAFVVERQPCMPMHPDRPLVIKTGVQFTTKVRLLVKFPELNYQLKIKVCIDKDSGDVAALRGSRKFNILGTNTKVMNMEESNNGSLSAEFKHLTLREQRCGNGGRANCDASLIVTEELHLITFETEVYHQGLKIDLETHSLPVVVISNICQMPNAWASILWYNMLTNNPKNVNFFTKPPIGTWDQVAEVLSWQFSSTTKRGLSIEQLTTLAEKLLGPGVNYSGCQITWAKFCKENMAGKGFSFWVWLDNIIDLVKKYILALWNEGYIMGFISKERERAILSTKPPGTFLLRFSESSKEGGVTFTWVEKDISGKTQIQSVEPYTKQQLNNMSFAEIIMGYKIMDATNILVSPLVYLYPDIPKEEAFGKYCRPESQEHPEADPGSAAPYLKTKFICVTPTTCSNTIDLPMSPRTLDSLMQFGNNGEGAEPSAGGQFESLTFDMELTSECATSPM

IC50 [8] | IC50 [14] | IC50 [15] | IC50 [25] | SMILES | inhibition [1] | Activity [2] | inhibition [3] | IC50 [4] | fold change (FC) [5] | inhibition at 50 µM [7] | inhibition at 50 µM [9] | inhibition at 50 µM [17] | inhibition at 50 µM [18] | inhibition at 50 µM [20] | inhibition at 50 µM [21] | IC50 [22] | IC50 [23] | Activity [24] | other results
 |  |  |  | Cc1cc2c(C(C)C)ccc(C)c2cc1O | 61.5% | Non-Toxic | 3.5% | 16.5 µM | 1.7 |  |  |  |  |  |  |  |  |  | 
40.3 µM | 33.9 µM | 30.9 µM |  | CC1=CC[C@H](C(C)C)c2cc(C)c(OC(=O)c3ccc(C)cc3)cc21 | 76% | Non-Toxic | 3.1% | 47.1 µM | 9.4 | 100% | 85.4% | 65% | 78.9% | 49.6% | 67.7% |  |  |  | Activity [6]: 52%; Activity [10]: 64.5%; Activity [11]: inactive; Activity [12]: 25.9%; Activity [13]: 55.8%; Activity [16]: 74.7%; inhibition [19]: Active
7.88 µM | 9.37 µM | 2.28 µM | 7.9 µM | Cc1cc2c(C(C)C)ccc(C)c2cc1OC(=O)c1ccc([N+](=O)[O-])cc1 | 18.5% |  | 1.6% |  | 1.8 | 100% | 100% | 100% | 97.6% | 100% | 100% | 17.6 µM | 7.75 µM | 43.03% | 
 |  |  |  | CC1=CC[C@H](C(C)C)c2cc(C)c(O)cc21 | 50.8% | Non-Toxic | 2.1% | 72 µM | 3.1 |  |  |  |  |  |  |  |  |  | 
12 µM | 10.2 µM | 8.37 µM | 8.2 µM | Cc1ccc(C(=O)Oc2cc3c(C)ccc(C(C)C)c3cc2C)cc1 | 30.3% |  | 2.9% |  | 1.8 | 100% | 100% | 90.2% | 86.5% | 72.3% | 100% | 23.7 µM | 22.8 µM | 13.37% | 
 |  |  |  | CC(=O)N[C@@H](CS)C(=O)O [ACETYLCYSTEINE] |  |  |  |  |  |  |  |  |  |  |  |  |  |  | Activity [27]: 1%

SMILES | IC50 [8] | IC50 [14] | IC50 [15] | IC50 [25] | inhibition [1] | Activity [2] | inhibition [3] | IC50 [4] | fold change (FC) [5] | inhibition at 50 µM [7] | inhibition at 50 µM [9] | inhibition at 50 µM [17] | inhibition at 50 µM [18] | inhibition at 50 µM [20] | inhibition at 50 µM [21] | IC50 [22] | IC50 [23] | Activity [24] | other results
CC1=CC[C@H](C(C)C)c2cc(C)c(OC(=O)Nc3ccccc3)cc21 | 0.03 µM | 0.12 µM | 0.3 µM | 4.05 µM | 4.2% |  | 3.3% |  | 1.6 | 92.6% | 100% | 75.1% | 92% | 93.2% | 100% | 7.93 µM | 0.46 µM | 38.24% | 
Cc1cc2c(C(C)C)ccc(C)c2cc1OC(=O)Nc1ccccc1 | 3.88 µM | 10.1 µM | 14 µM |  | 13.3% |  | 3% |  | 1.4 | 100% | 90.4% | 100% | 84.7% | 44.7% | 100% | 8.62 µM | 15.8 µM |  | Activity [26]: Non-Toxic
